Patent US7605168B2 (Plexxikon, Inc., priority 2004, dated 2009)
pIC50: −log10 of the molar value.

How the values were obtained:
Format in all cases: biochemical
[1] = target: T1, PDE4B: catalytic domain of human PDE4B from S152-S528 (Homo sapiens, UniProt Q07343); assay: PDE4 IC50 determination by Scintillation Proximity Assay (SPA), PDE4B catalytic domain; details: [3H]cAMP SPA, 30 min at 30° C.
T1 construct: The catalytic domain of human PDE4B from S152-S528; His6 (N, cleaved yes); thrombin cleavage site (N, cleaved yes); made in house; host or cells: E. coli BL21 (DE3) RIL
T1 sequence (Q07343 324-700): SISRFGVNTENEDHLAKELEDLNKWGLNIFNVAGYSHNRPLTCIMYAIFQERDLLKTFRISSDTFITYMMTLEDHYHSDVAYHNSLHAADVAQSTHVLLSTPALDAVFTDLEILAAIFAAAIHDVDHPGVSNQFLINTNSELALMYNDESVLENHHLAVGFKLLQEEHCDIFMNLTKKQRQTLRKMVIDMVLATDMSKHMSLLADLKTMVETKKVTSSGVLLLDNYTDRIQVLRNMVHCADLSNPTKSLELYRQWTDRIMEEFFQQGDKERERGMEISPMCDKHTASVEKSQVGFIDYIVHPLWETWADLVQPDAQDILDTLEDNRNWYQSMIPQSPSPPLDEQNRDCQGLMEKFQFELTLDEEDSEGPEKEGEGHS
Description: (§1) IC50s were determined by Scintillation Proximity Assay (SPA). The principle of the assay is based on the fact that cAMP, the PDE4 substrate, binds weakly to Yittrium Silicate SPA beads, whereas AMP, the product of PDE4 hydrolysis binds strongly. Thus, the extent of PDE4 hydrolysis of a sample of [^3H]cAMP can be measured because only the [^3H]AMP produced by PDE4 hydrolysis will bind to the SPA beads and produce a scintillation signal.
Enzyme was stored in 50% glycerol at −20°.
(§2) In addition to the compound dilutions, each assay plate contained control wells with 1 μl of DMSO (to define 0% enzyme inhibition) or 1 μl of 200 μM roflumilast (to define 100% enzyme inhibition). Using a Beckman FX robot, 10 μl of [^3H] cAMP (Amersham TRK559) at […] in assay buffer (50 mM Tris, pH 7.5; 8.3 mM MgCl; 1.7 mM EGTA; 0.01% BSA) was transferred to each assay well. Next, 10 μl of PDE4 enzyme in assay buffer was added and the plates were shaken for 30 s. at 1000 rpm to start the cAMP hydrolysis reaction. The concentrations of enzyme used were: PDE4B, 80 ng/ml; PDE4D, 4 ng/ml; PDE4B2, 2.5 μl of 50% glycerol stock/ml; PDE4D5 0.083 μl of 50% glycerol stock/ml. Assay plates were covered and incubated for 30 min. at 30° C. Reactions were stopped by robotic addition of 10 μl of 5 mg/ml SPA beads (Amersham RPNQ0013) in 18 mM ZnSO4. The assay plates were covered with clear plastic film, centrifuged for 1 min. at 1000 RPM to settle the SPA beads, and counted using a Wallac TriLux scintillation counter. IC50's were calculated from the raw assay data by non-linear regression curve fitting using the Assay Explorer software package from MDL.

[2] = target: T2, PDE4D5: full-length human PDE4D5 isozyme (Homo sapiens, UniProt Q08499); assay: PDE4 IC50 determination by Scintillation Proximity Assay (SPA), full-length PDE4D5; details: cell lysate, [3H]cAMP SPA
T2 construct: made in house; host or cells: baculovirus infected insect cells (pFastBacHT)
T2 sequence (Q08499 with tags, fused parts or gaps isoform Q08499-6): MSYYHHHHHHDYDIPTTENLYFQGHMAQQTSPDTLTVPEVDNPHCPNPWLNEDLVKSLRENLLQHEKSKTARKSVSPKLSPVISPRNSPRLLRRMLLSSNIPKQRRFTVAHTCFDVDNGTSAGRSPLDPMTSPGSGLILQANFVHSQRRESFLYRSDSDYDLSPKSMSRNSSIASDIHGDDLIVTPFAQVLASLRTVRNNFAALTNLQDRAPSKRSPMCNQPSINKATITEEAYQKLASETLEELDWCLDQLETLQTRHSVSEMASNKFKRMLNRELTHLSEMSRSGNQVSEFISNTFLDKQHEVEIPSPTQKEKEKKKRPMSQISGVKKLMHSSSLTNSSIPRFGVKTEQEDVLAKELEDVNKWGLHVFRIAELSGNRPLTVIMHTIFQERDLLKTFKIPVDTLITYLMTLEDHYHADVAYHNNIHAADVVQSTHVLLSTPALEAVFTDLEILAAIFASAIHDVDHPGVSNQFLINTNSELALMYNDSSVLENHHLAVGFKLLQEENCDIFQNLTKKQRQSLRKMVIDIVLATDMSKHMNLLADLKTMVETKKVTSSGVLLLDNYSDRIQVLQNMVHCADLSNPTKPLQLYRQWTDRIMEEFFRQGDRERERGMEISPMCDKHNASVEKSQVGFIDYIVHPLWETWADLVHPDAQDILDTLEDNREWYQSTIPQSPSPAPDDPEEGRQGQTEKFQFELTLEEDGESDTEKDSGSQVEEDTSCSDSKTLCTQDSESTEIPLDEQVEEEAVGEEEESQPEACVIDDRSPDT
Description: (§3) The enzyme was not purified from the cell lysates, so enzyme concentrations were not determined. Enzyme was stored in 50% glycerol at −20°.
as §1, §2

[3] = target: T3, PDE4B2: full-length human PDE4B2 isozyme (Homo sapiens, UniProt Q07343); assay: PDE4 IC50 determination by Scintillation Proximity Assay (SPA), full-length PDE4B2; details: cell lysate, [3H]cAMP SPA
T3 construct: made in house; host or cells: baculovirus infected insect cells (pFastBacHT)
T3 sequence (Q07343 with tags, fused parts or gaps isoform Q07343-2): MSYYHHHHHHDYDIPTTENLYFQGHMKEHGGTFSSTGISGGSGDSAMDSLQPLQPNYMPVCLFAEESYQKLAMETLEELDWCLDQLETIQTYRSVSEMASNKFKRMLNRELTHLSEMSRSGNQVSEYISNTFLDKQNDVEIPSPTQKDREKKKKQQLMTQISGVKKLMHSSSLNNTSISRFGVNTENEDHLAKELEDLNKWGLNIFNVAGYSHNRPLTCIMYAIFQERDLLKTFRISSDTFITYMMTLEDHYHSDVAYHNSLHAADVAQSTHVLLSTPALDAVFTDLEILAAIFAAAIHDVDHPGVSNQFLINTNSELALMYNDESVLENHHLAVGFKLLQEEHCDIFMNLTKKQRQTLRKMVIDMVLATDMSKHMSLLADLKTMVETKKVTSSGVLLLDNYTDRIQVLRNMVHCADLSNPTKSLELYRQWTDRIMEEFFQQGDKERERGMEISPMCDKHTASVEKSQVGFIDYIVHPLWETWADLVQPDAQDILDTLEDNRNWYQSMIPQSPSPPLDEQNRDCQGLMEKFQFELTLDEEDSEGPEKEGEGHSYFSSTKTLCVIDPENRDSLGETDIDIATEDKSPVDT
Description: as §3, §1, §2

For `COc1ccc(-c2cn(S(=O)(=O)c3ccc(-c4ccccc4)cc3)c3ncccc23)cc1OC` [Compound 10, 1-(Biphenyl-4-sulfonyl)-3-(3,4-dimethoxy-phenyl)-1H-pyrrolo[2,3-b]pyridine], the pIC50 [1] was over 5.00, the pIC50 [2] was over 5.00 and the pIC50 [3] was over 5.00.

`COc1ccc(-c2cn(S(=O)(=O)c3cccc4cc(C)cnc34)c3ncccc23)cc1OC` [Compound 13, 8-[3-(3,4-Dimethoxy-phenyl)-pyrrolo[2,3-b]pyridine-1-sulfonyl]-3-methyl-quinoline] showed a pIC50 [1] of over 5.00, a pIC50 [2] of over 5.00 and a pIC50 [3] of over 5.00.

In the case of `COc1ccc(-c2cn(S(=O)(=O)c3ccc(Oc4ccccc4)cc3)c3ncccc23)cc1OC` [Compound 15, 3-(3,4-Dimethoxy-phenyl)-1-(4-phenoxy-benzenesulfonyl)-1H-pyrrolo[2,3-b]pyridine], the pIC50 [1] was over 5.00, the pIC50 [2] was over 5.00 and the pIC50 [3] was over 5.00.

In the case of `COc1ccc(-c2cn(S(=O)(=O)c3ccccc3)c3ccccc23)cc1OC` [Compound 19, 1-benzenesulfonyl-3-(3,4-dimethoxy-phenyl)-1H-indole], the pIC50 [1] was over 5.00, the pIC50 [2] was over 5.00 and the pIC50 [3] was over 5.00.

`CCOC(=O)c1ccc(NC(=O)n2cc(-c3ccc(OC)c(OC)c3)c3cccnc32)cc1` [Compound 33, 4-[3-(3,4-Dimethoxy-phenyl)-pyrrolo[2,3-b]pyridine-1-carbonyl]-amino-benzoic acid ethyl ester] was tested, and the pIC50 [1] was over 5.00, the pIC50 [2] was under 5.00 and the pIC50 [3] was over 5.00.

`COc1ccc(-c2cn(C(=O)Nc3cccc(F)c3)c3ncccc23)cc1OC` [Compound 35, 3-(3,4-Dimethoxy-phenyl)-pyrrolo[2,3-b]pyridine-1-carboxylic acid(3-fluoro-phenyl)-amide] was tested, and the pIC50 [1] was under 5.00, the pIC50 [2] was under 5.00 and the pIC50 [3] was under 5.00.

`COc1ccc(NC(=O)n2cc(-c3ccc(OC)c(OC)c3)c3cccnc32)cc1` [Compound 39, 3-(3,4-Dimethoxy-phenyl)-pyrrolo[2,3-b]pyridine-1-carboxylic acid (4-methoxy-phenyl)-amide] showed a pIC50 [1] of over 5.00, a pIC50 [2] of under 5.00 and a pIC50 [3] of over 5.00.

`COc1ccc(-c2cn(C(=O)Nc3ccc(C(C)=O)cc3)c3ncccc23)cc1OC` [Compound 40, 3-(3,4-Dimethoxy-phenyl)-pyrrolo[2,3-b]pyridine-1-carboxylic acid (4-acetyl-phenyl)-amide] gave a pIC50 [1] of over 5.00, a pIC50 [2] of over 5.00 and a pIC50 [3] of over 5.00.

`COc1ncc(-c2cn(S(=O)(=O)Cc3ccccc3)c3ncccc23)cn1` [Compound 45, 3-(2-Methoxy-pyrimidin-5-yl)-1-phenylmethanesulfonyl-1H-pyrrolo[2,3-b]pyridine] gave a pIC50 [1] of over 5.00, a pIC50 [2] of over 5.00 and a pIC50 [3] of over 5.00.

Compound `CSc1nccc(-c2cn(S(=O)(=O)c3cccc4cccnc34)c3ncccc23)n1` [Compound 46, 8-[3-(2-Methylsulfanyl-pyrimidin-4-yl)-pyrrolo[2,3-b]pyridine-1-sulfonyl]-quinoline] has a pIC50 [1] of over 5.00, a pIC50 [2] of over 5.00 and a pIC50 [3] of over 5.00.

`COc1ccc(CC(=O)n2cc(-c3ccc(OC)c(OC)c3)c3cccnc32)cc1` [Compound 60, 1-[3-(3,4-Dimethoxy-phenyl)-pyrrolo[2,3-b]pyridin-1-yl]-2-(4-methoxy-phenyl)-ethanone-amide] was tested, and the pIC50 [1] was over 5.00, the pIC50 [2] was over 5.00 and the pIC50 [3] was over 5.00.

In the case of `COc1ccc(-c2c[nH]c3ncccc23)cc1OCc1ccccc1` [Compound 89, 3-(3-Benzyloxy-4-methoxy-phenyl)-1H-pyrrolo[2,3-b]pyridine], the pIC50 [2] was over 5.00 and the pIC50 [3] was over 5.00.

`c1cnc2[nH]cc(-c3ccc4c(c3)OCO4)c2c1` [Compound 90, 3-Benzo[1,3]dioxol-5-yl-1H-pyrrolo[2,3-b]pyridine] showed a pIC50 [1] of under 5.00, a pIC50 [2] of under 5.00 and a pIC50 [3] of under 5.00.

For `COc1ccc2c(c1)c(-c1ccc(OC)c(OC)c1)cn2S(=O)(=O)c1cccc2cc(C)cnc12` [Compound 94, 8-[3-(3,4-Dimethoxy-phenyl)-5-methoxy-indole-1-sulfonyl]-3-methyl-quinoline], the pIC50 [2] was over 5.00 and the pIC50 [3] was over 5.00.

`COc1ccc(-c2cn(C(=O)Nc3ccc(F)c([N+](=O)[O-])c3)c3ncccc23)cc1OC1CCCC1` [Compound 98, 3-(3-Cyclopentyloxy-4-methoxy-phenyl)-pyrrolo[2,3-b]pyridine-1-carboxylic acid (3-nitro-4-fluoro-phenyl)-amide] gave a pIC50 [2] of over 5.00 and a pIC50 [3] of over 5.00.

Compound `COc1ccc(-c2cn(S(=O)(=O)c3ccccc3)c3ccccc23)cc1OC1CCCC1` [Compound 99, 1-Benzenesulfonyl-3-(3-cyclopentyloxy-4-methoxy-phenyl)-1H-indole] has a pIC50 [1] of over 5.00, a pIC50 [2] of over 5.00 and a pIC50 [3] of over 5.00.

`COc1ccc(-c2cn(C(=O)c3ccc(Cl)nc3)c3ncccc23)cc1OC` [Compound 107, (6-Chloro-pyridin-3-yl)-[3-(3,4-dimethoxy-phenyl)-pyrrolo[2,3-b]pyridin-1-yl]-methanone] showed a pIC50 [2] of over 5.00 and a pIC50 [3] of over 5.00.

`COc1ccc(-c2cn(C(=O)[C@@H]3C[C@H]3c3ccccc3)c3ncccc23)cc1OC` [Compound 108, [3-(3,4-Dimethoxy-phenyl)-pyrrolo[2,3-b]pyridin-1-yl]-((1R,2R)-2-phenyl-trans-cyclopropyl)-methanone] was tested, and the pIC50 [2] was over 5.00 and the pIC50 [3] was over 5.00.

With `CCOc1ccc(C(=O)n2cc(-c3ccc(OC)c(OC)c3)c3cccnc32)c(OCC)c1` [Compound 111, (2,4-Diethoxy-phenyl)-[3-(3,4-dimethoxy-phenyl)-pyrrolo[2,3-b]pyridin-1-yl]-methanone] the pIC50 [1] was over 5.00, the pIC50 [2] was over 5.00 and the pIC50 [3] was over 5.00.

`COc1ccc(-c2cn(C(=O)c3ccccc3Oc3ccccc3)c3ncccc23)cc1OC` [Compound 118, [3-(3,4-Dimethoxy-phenyl)-pyrrolo[2,3-b]pyridin-1-yl]-(2-phenoxy-phenyl)-methanone] showed a pIC50 [2] of over 5.00 and a pIC50 [3] of over 5.00.

`CCOc1ccc2ccccc2c1C(=O)n1cc(-c2cccc(C(=O)OC)c2)c2cccnc21` [Compound 120, 3-[1-(2-Ethoxy-naphthalene-1-carbonyl)-1H-pyrrolo[2,3-b]pyridin-3-yl]-benzoic acid methyl ester] was tested, and the pIC50 [2] was over 5.00 and the pIC50 [3] was over 5.00.

With `CCOc1ccc2ccccc2c1C(=O)n1cc(-c2ccc(O)c(OC)c2)c2cccnc21` [Compound 123, (2-Ethoxy-naphthalen-1-yl)-[3-(4-hydroxy-3-methoxy-phenyl)-pyrrolo[2,3-b]pyridin-1-yl]-methanone] the pIC50 [2] was over 5.00 and the pIC50 [3] was over 5.00.

For `COc1cc(-c2cn(S(=O)(=O)c3ccccc3)c3ncccc23)ccc1OCc1cc(-c2ccccc2)no1` [Compound 125, 1-Benzenesulfonyl-3-[3-methoxy-4-(3-phenyl-isoxazol-5-ylmethoxy)-phenyl]-1H-pyrrolo[2,3-b]pyridine], the pIC50 [2] was over 5.00 and the pIC50 [3] was over 5.00.

Work on `CCOC(=O)c1ccc(C#Cc2cn(S(=O)(=O)c3ccccc3)c3ncc(-c4ccc(OC)c(OC)c4)cc23)cc1` [Compound 135, 4-[1-Benzenesulfonyl-5-(3,4-dimethoxy-phenyl)-1H-pyrrolo[2,3-b]pyridin-3-ylethynyl]-benzoic acid ethyl ester] yielded a pIC50 [3] of over 5.00.

With `COc1ccc(-c2cnc3c(c2)c(C#Cc2ccccc2)cn3S(=O)(=O)c2ccccc2)cc1OC` [Compound 136, 1-Benzenesulfonyl-5-(3,4-dimethoxy-phenyl)-3-phenylethynyl-1H-pyrrolo[2,3-b]pyridine] the pIC50 [2] was over 5.00 and the pIC50 [3] was over 5.00.

`COC(=O)c1cccc(C#Cc2cn(S(=O)(=O)c3ccccc3)c3ncc(-c4ccc(OC)c(OC)c4)cc23)c1` [Compound 137, 3-[1-Benzenesulfonyl-5-(3,4-dimethoxy-phenyl)-1H-pyrrolo[2,3-b]pyridin-3-ylethynyl]-benzoic acid methyl ester] gave a pIC50 [2] of over 5.00 and a pIC50 [3] of over 5.00.

Work on `COc1ccc(-c2cn(S(=O)(=O)c3ccccc3)c3ncccc23)cc1O` [Compound 141, 5-(1-Benzenesulfonyl-1H-pyrrolo[2,3-b]pyridin-3-yl)-2-methoxy-phenol] yielded a pIC50 [2] of over 5.00 and a pIC50 [3] of over 5.00.

Compound `Cc1[nH]c2ncccc2c1-c1ccc2c(c1)OCO2` [Compound 142, 3-Benzo[1,3]dioxol-5-yl-2-methyl-1H-pyrrolo[2,3-b]pyridine] has a pIC50 [1] of over 5.00, a pIC50 [2] of under 5.00 and a pIC50 [3] of under 5.00.
